Measurements published in patent publication US9428536B2, “Immunostimulatory G, U-containing oligoribonucleotides” (Zoetis Belgium SA, priority 2002, dated 2016).

Molecular target: T1, human TLR7 (Homo sapiens, UniProt Q9NYK1)
T1 construct: All full-length TLR fragments were cloned into pGEM-T Easy vector; expressed in transfected cells; host or cells: 293 HEK cells (ATCC), transient electroporation with pcDNA3.1(-) TLR expression plasmid
T1 sequence (Q9NYK1 27-1049): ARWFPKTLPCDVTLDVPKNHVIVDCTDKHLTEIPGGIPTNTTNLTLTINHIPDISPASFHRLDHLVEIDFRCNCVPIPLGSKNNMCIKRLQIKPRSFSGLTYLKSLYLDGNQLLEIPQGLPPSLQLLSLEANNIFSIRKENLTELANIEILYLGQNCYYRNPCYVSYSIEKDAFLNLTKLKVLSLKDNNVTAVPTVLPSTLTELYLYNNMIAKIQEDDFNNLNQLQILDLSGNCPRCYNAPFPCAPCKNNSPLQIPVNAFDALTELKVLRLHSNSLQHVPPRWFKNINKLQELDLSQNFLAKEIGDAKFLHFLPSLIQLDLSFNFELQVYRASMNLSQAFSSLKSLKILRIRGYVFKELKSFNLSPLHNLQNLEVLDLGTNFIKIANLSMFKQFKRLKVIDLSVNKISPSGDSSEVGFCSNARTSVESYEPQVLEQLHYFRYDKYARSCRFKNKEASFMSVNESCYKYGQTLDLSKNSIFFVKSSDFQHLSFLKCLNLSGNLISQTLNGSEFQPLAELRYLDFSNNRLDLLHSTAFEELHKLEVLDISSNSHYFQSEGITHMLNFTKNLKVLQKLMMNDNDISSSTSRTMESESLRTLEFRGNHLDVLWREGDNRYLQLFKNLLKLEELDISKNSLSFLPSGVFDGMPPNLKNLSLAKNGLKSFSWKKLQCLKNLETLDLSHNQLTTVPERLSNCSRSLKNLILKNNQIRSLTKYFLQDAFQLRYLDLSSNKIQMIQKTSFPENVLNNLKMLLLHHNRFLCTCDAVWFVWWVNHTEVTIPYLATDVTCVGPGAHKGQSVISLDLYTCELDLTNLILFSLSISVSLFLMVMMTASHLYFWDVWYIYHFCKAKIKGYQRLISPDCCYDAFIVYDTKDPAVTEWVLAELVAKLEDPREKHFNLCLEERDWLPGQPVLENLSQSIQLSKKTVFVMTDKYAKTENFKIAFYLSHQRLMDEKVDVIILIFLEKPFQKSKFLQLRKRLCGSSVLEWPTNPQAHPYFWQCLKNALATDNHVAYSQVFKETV
Test: NF-κB luciferase reporter in 293 HEK cells transfected with human TLR7
Format: cell-based
Settings: FIG. 12; transient transfectants; 7 hours stimulation
Protocol: FIG. 12 depicts the responsiveness of human TLR7 and human TLR8 to ribonucleosides. It was determined that the response by human PBMC to RNA or RVC was mediated by TLR7 or TLR8 and further that the response could be driven by ribonucleosides only. Human 293 cells were either mock-transfected or transfected with human TLR7 or human TLR8 and monitored for responsiveness to ribonucleosides. The open reading frames of human TLR7 (hTLR7) and human TLR8 (hTLR8) were amplified by PCR from a cDNA library of human PBMC using the following primers pairs: for TLR7, 5′-[…]-3′ (SEQ ID NO:15) and 5′-[…]-3′ (SEQ ID NO:16); and for TLR8, 5′-[…]-3′ (SEQ ID NO:17) and 5′-[…]-3′ (SEQ ID NO:18). The sequence information for primer selection was obtained from Genbank accession numbers AF240467 and AF245703. All full-length TLR fragments were cloned into pGEM-T Easy vector (Promega, Mannheim, Germany), excised with NotI, cloned into the expression vector pcDNA 3.1(−) (Invitrogen, Karlsruhe, Germany) and sequenced. Sequences of the coding region of hTLR7 and hTLR8 correspond to the accession numbers AF240467 (SEQ ID NO:25) and AF245703, respectively (SEQ ID NO:29).
For monitoring transient NF-κB activation, 3×10^6 293 HEK cells (ATCC, VA, USA) were electroporated at 200 volt and 960 μF with 1 μg TLR expression plasmid, 20 ng NF-κB luciferase reporter-plasmid and 14 μg of pcDNA3.1(−) plasmid as carrier in 400 μl RPMI medium supplemented with 25% fetal bovine serum (FCS). Cells were seeded at 10^5 cells per well and after over night culture stimulated with R-848 (denoted in FIG. 12 as X; commercially synthesized by GLSynthesis Inc., Worcester, Mass., USA), RVCs or ribonucleosides for a further 7 hours. Stimulated cells were lysed using reporter lysis buffer (Promega, Mannheim, Germany), and lysate was assayed for luciferase activity using a Berthold luminometer (Wildbad, Germany).

CCOCc1nc2c(N)nc3ccccc3c2n1CC(C)(C)O [R-848, 4-amino-α,α-dimethyl-2-ethoxymethyl-1H-imidazo[4,5-c]quinoline-1-ethanol, reference compound]
response of TLR7 transfectants (NF-κB luciferase): responded
